Read-outs that look alike come from different tables or passages of the source.
How the values were obtained:
[1] = target: Beta Secretase enzyme (BACE) (Homo sapiens, UniProt P56817); assay: In vitro enzymatic BACE FRET (fluorescence resonance energy transfer) assay; format: biochemical; conditions: average IC50, enzyme assay; read-out: BACE 1 FRET assay
Procedure, shortened: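 Fluorescence read after Tris quench to neutral pH. Reaction: 50 nM fluorophore/quencher peptide substrate, 1 h, in 0.05 M acetate pH 4.2, 10% DMSO final, 100 uM genapol.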

[2] = test system: Aβ40 in conditioned medium of cells stably expressing Amyloid Precursor Protein (APP); assay: In vitro BACE cell-based assay (Aβ40 in conditioned medium, sandwich ELISA); conditions: read-out: HEK cell assay
Procedure, shortened: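 Conditioned medium from stably APP-expressing cells treated with compound dose series is assayed for Aβ40 by sandwich ELISA with time-resolved fluorescence detection. IC50 is calculated from percent inhibition of Aβ40 against compound concentration.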

[3] = Homo sapiens, HEK293, average IC50, HEK cells

Chain of Beta Secretase enzyme (BACE) (P56817 46-501, species assumed): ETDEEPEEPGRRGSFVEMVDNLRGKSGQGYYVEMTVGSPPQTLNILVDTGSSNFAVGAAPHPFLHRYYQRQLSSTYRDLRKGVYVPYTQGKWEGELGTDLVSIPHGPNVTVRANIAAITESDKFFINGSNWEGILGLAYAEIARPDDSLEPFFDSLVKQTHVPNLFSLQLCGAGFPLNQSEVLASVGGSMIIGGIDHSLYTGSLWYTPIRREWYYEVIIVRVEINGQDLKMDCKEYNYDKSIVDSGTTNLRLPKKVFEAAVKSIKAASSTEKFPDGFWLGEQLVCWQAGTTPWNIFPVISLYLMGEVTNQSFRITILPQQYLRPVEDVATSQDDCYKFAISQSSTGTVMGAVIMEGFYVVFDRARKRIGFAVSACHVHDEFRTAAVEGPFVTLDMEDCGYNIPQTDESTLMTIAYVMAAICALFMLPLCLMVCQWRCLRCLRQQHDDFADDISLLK

SMILES	IC50 [1] [nM]	IC50 [2, 3] [nM]	IC50 ([2]; average IC50, HEK cells) [nM]
NC1=N[C@@]2(CO1)c1cc(-c3cccnc3)ccc1Oc1cnc(-c3ccnc(F)c3)cc12 [Example 536, (5S)-3-(2-fluoro-4-pyridinyl)-7-(3-pyridinyl)spiro[chromeno[2,3-c]pyridine-5,4′-[1,3]oxazol]-2′-amine]	2.3	27.1	–
NC1=N[C@@]2(CO1)c1cc(-c3cncnc3)ccc1Oc1cnc(N3CCC(F)(F)C3)cc12 [Example 540, (5S)-3-(3,3-difluoro-1-pyrrolidinyl)-7-(5-pyrimidinyl)spiro[chromeno[2,3-c]pyridine-5,4′-[1,3]oxazol]-2′-amine]	0.8	7.2	–
NC1=N[C@@]2(CO1)c1cc(-c3cncnc3)ccc1Oc1cnc(-c3cc(F)nc(F)c3)cc12 [Example 542, (5S)-3-(2,6-difluoro-4-pyridinyl)-7-(5-pyrimidinyl)spiro[chromeno[2,3-c]pyridine-5,4′-[1,3]oxazol]-2′-amine]	1.1	18.8	–
CC1(C)C=C(c2cc3c(cn2)Oc2ccc(-c4cncnc4)cc2[C@@]32COC(N)=N2)CCO1 [Example 543, (5S)-3-(6,6-dimethyl-3,6-dihydro-2H-pyran-4-yl)-7-(5-pyrimidinyl)spiro[chromeno[2,3-c]pyridine-5,4′-[1,3]oxazol]-2′-amine]	1.6	–	24.6
NC1=N[C@@]2(CO1)c1cc(-c3cccnc3F)ccc1Oc1cnc(-c3ccnc(C(F)(F)F)c3)cc12 [Example 545, (5S)-7-(2-fluoro-3-pyridinyl)-3-(2-(trifluoromethyl)-4-pyridinyl)spiro[chromeno[2,3-c]pyridine-5,4′-[1,3]oxazol]-2′-amine]	5.6	406	–
Cc1cc(-c2ccc3c(c2)[C@@]2(COC(N)=N2)c2cc(C4=CCOCC4)ncc2O3)ccc1F [Example 551, (5S)-3-(3,6-dihydro-2H-pyran-4-yl)-7-(4-fluoro-3-methylphenyl)spiro[chromeno[2,3-c]pyridine-5,4′-[1,3]oxazol]-2′-amine]	3.4	80.7	–
Cn1cc(-c2cc(F)c3c(c2)[C@]2(COC(N)=N2)c2cc(-c4cncc(C#N)c4)ccc2O3)cn1 [Example 554, 5-((4S)-2-amino-5′-fluoro-7′-(1-methyl-1H-pyrazol-4-yl)spiro[1,3-oxazole-4,9′-xanthen]-2′-yl)-3-pyridinecarbonitrile]	1.6	6.3	–
COc1cc(F)c2c(c1)[C@@]1(COC(N)=N1)c1cc(-c3cncnc3)c(F)cc1O2 [Example 555, (4R)-3′,5′-difluoro-7′-methoxy-2′-(5-pyrimidinyl)spiro[1,3-oxazole-4,9′-xanthen]-2-amine]	290	1700	–
N#Cc1cncc(-c2ccc3c(c2)[C@@]2(COC(N)=N2)c2cc(C4=CCOCC4)cc(F)c2O3)c1 [Example 557, 5-((4S)-2-amino-7′-(3,6-dihydro-2H-pyran-4-yl)-5′-fluorospiro[1,3-oxazole-4,9′-xanthen]-2′-yl)-3-pyridinecarbonitrile]	0.7	3.7	–
N#Cc1cncc(-c2ccc3c(c2)[C@@]2(COC(N)=N2)c2cc(N4CCOCC4)cc(F)c2O3)c1 [Example 558, 5-((4S)-2-amino-5′-fluoro-7′-(4-morpholinyl)spiro[1,3-oxazole-4,9′-xanthen]-2′-yl)-3-pyridinecarbonitrile]	1.7	5.7	–

Second part, led by results:

IC50 [1] [nM]	IC50 [2, 3] [nM]	SMILES	IC50 ([2]; average IC50, HEK cells) [nM]
0.7	106	COc1ccc(-c2cc3c(cn2)Oc2ccc(-c4cccc(Cl)c4)cc2[C@@]32COC(N)=N2)cc1F [Example 535, (5S)-7-(3-chlorophenyl)-3-(3-fluoro-4-methoxyphenyl)spiro[chromeno[2,3-c]pyridine-5,4′-[1,3]oxazol]-2′-amine]	–
7.6	303	COc1cc(-c2cc3c(cn2)Oc2ccc(-c4cccnc4F)cc2[C@@]32COC(N)=N2)ccc1F [Example 537, (5S)-3-(4-fluoro-3-methoxyphenyl)-7-(2-fluoro-3-pyridinyl)spiro[chromeno[2,3-c]pyridine-5,4′-[1,3]oxazol]-2′-amine]	–
5.2	583	COc1cc(-c2cc3c(cn2)Oc2ccc(-c4cccc(Cl)c4)cc2[C@@]32COC(N)=N2)ccc1F [Example 538, (5S)-7-(3-chlorophenyl)-3-(4-fluoro-3-methoxyphenyl)spiro[chromeno[2,3-c]pyridine-5,4′-[1,3]oxazol]-2′-amine]	–
1.7	38.2	NC1=N[C@@]2(CO1)c1cc(-c3cncnc3)ccc1Oc1cnc(-c3ccnc(F)c3)cc12 [Example 539, (5S)-3-(2-fluoro-4-pyridinyl)-7-(5-pyrimidinyl)spiro[chromeno[2,3-c]pyridine-5,4′-[1,3]oxazol]-2′-amine]	–
0.4	12.3	NC1=N[C@@]2(CO1)c1cc(-c3cccnc3F)ccc1Oc1cnc(-c3cc(F)nc(F)c3)cc12 [Example 541, (5S)-3-(2,6-difluoro-4-pyridinyl)-7-(2-fluoro-3-pyridinyl)spiro[chromeno[2,3-c]pyridine-5,4′-[1,3]oxazol]-2′-amine]	–
8.4	122	CC1(C)C[C@H](c2cc3c(cn2)Oc2ccc(-c4cncnc4)cc2[C@@]32COC(N)=N2)CCO1 [Example 544, (5S)-3-((4R)-2,2-dimethyltetrahydro-2H-pyran-4-yl)-7-(5-pyrimidinyl)spiro[chromeno[2,3-c]pyridine-5,4′-[1,3]oxazol]-2′-amine]	–
0.5	127	NC1=N[C@@]2(CO1)c1cc(-c3cccc(Cl)c3)ccc1Oc1cnc(-c3ccc(F)c(F)c3)cc12 [Example 550, (5S)-7-(3-chlorophenyl)-3-(3,4-difluorophenyl)spiro[chromeno[2,3-c]pyridine-5,4′-[1,3]oxazol]-2′-amine]	–
0.9	3.1	CC1(COc2cc(F)c3c(c2)[C@]2(COC(N)=N2)c2cc(-c4cncc(C#N)c4)ccc2O3)COC1 [Example 552, 5-((4S)-2-amino-5′-fluoro-7′-((3-methyl-3-oxetanyl)methoxy)spiro[1,3-oxazole-4,9′-xanthen]-2′-yl)-3-pyridinecarbonitrile]	–
2.4	13.2	N#Cc1cncc(-c2ccc3c(c2)[C@@]2(COC(N)=N2)c2cc(OCC4CCOCC4)cc(F)c2O3)c1 [Example 553, 5-((4S)-2-amino-5′-fluoro-7′-(tetrahydro-2H-pyran-4-ylmethoxy)spiro[1,3-oxazole-4,9′-xanthen]-2′-yl)-3-pyridinecarbonitrile]	–
8.9	146	COc1cc(F)c2c(c1)[C@]1(COC(N)=N1)c1cc(-c3cncnc3)c(F)cc1O2 [Example 556, (4S)-3′,5′-difluoro-7′-methoxy-2′-(5-pyrimidinyl)spiro[1,3-oxazole-4,9′-xanthen]-2-amine]	–
12.2	151	NC1=N[C@@]2(CO1)c1cc(-c3ccccc3)ccc1Oc1c(F)cc(-c3cccnn3)cc12 [Example 559, (4S)-4′-fluoro-7′-phenyl-2′-(3-pyridazinyl)spiro[1,3-oxazole-4,9′-xanthen]-2-amine]	–
2.8	14.2	C[C@@H]1CN(c2cc(F)c3c(c2)[C@]2(COC(N)=N2)c2cc(-c4cncc(C#N)c4)ccc2O3)C[C@H](C)O1 [Example 560, 5-((4S)-2-amino-7′-((2R,6S)-2,6-dimethyl-4-morpholinyl)-5′-fluorospiro[1,3-oxazole-4,9′-xanthen]-2′-yl)-3-pyridinecarbonitrile]	–

Source: patent US8883782B2, “Spiro-tetracyclic ring compounds as beta-secretase modulators and methods of use” (Amgen Inc., priority 2010, dated 2014)
